Measurements published in ChEMBL document CHEMBL4428125, “8-Substituted 1,3-dimethyltetrahydropyrazino[2,1-f]purinediones: Water-soluble adenosine receptor antagonists and monoamine oxidase B inhibitors” (Bioorg Med Chem, 2016).
pIC50, pKi: −log10 of the molar value. In brackets after ≈: the same amount, converted by molar mass.

Tests used:
[1] = Thermodynamic solubility of the compound at pH 4; format: physicochemical; conditions: buffer, read-out: Therm_solubility
Adenosine receptor A1 [2] = molecular target: T1, Adenosine receptor A1 (Rattus norvegicus, UniProt P25099); assay: Displacement of [3H]CCPA from A1 receptor in rat brain cortex membranes by liquid scintillation counting method; format: cell membranes
T1 sequence (P25099 whole entry): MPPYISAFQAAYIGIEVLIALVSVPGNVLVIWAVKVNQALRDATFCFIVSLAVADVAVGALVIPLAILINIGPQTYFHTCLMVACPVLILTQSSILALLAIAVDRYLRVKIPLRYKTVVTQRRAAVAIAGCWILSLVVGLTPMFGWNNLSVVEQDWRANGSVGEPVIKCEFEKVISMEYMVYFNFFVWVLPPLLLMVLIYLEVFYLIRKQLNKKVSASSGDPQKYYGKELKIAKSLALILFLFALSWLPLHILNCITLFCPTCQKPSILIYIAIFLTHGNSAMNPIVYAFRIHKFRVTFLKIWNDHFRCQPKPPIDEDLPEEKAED

Adenosine receptor A2b = molecular target: T2, Adenosine receptor A2b (Homo sapiens, UniProt P29275); assay: Displacement of [3H]PSB-603 from human A2B receptor expressed in CHO cell membrane; format: cell membranes
T2 sequence (P29275 whole entry): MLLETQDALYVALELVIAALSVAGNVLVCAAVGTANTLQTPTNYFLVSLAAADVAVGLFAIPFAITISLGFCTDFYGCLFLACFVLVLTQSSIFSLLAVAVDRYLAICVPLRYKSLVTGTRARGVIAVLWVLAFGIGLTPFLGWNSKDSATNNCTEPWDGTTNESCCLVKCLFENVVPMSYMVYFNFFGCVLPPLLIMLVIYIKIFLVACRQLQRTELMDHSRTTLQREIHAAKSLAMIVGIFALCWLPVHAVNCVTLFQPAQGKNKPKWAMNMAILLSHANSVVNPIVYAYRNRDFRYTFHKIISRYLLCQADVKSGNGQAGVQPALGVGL

[3] = Thermodynamic solubility of the compound at pH 7.4; format: physicochemical; conditions: buffer, read-out: Therm_solubility
[4] = molecular target: T3, Adenosine receptor A3 (Homo sapiens) (UniProt P0DMS8); assay: Displacement of [3H]PSB-11 from human A3 receptor expressed in CHO cell membrane at 10 uM by liquid scintillation counting method relative to control relative to control; format: cell membranes
T3 sequence (whole entry): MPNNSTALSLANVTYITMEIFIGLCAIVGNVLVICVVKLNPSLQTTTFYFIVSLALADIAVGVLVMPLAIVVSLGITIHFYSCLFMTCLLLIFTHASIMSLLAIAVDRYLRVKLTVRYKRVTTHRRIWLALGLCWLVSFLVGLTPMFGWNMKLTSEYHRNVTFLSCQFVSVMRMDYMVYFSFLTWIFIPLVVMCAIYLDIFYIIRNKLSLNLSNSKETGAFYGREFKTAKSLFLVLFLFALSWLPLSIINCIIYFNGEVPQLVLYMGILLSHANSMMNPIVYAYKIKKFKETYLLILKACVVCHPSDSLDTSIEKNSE

Adenosine receptor A2a = Adenosine receptor A2a (Rattus norvegicus, UniProt P30543); assay: Displacement of [3H]MSX from A2A receptor in rat brain striatum membranes measured after 30 mins by liquid scintillation counting method; format: cell membranes
Chain of Adenosine receptor A2a (P30543 whole entry): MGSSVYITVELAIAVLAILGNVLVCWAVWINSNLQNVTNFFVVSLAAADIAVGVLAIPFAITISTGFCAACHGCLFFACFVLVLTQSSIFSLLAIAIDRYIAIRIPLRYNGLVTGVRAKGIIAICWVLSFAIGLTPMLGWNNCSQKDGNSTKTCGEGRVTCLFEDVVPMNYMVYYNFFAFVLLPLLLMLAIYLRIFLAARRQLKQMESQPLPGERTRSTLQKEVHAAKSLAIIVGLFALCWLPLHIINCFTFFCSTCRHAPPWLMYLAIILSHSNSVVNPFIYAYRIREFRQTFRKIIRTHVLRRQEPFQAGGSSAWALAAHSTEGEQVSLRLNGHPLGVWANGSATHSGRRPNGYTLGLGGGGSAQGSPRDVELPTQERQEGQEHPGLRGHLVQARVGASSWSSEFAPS

[5] = molecular target: T4, Adenosine receptor A1 (Rattus norvegicus) (UniProt P25099); assay: Displacement of [3H]CCPA from A1 receptor in rat brain cortex membranes at 1.5 uM by liquid scintillation counting method; format: cell membranes
T4 sequence (whole entry): T1 sequence (P25099 whole entry)

Adenosine receptor A3 = molecular target: T5, Adenosine receptor A3 (Homo sapiens, UniProt P0DMS8); assay: Displacement of [3H]PSB-11 from human A3 receptor expressed in CHO cell membrane by liquid scintillation counting method relative to control; format: cell membranes
T5 sequence (P0DMS8 whole entry): T3 sequence (whole entry)

[6] = molecular target: T6, Adenosine receptor A2b (Homo sapiens) (UniProt P29275); assay: Displacement of [3H]PSB-603 from human A2B receptor expressed in CHO cell membrane at 0.3 uM relative to control; format: cell membranes
T6 sequence (whole entry): T2 sequence (P29275 whole entry)

[7] = molecular target: T7, Amine oxidase [flavin-containing] B (Homo sapiens, UniProt P27338); assay: Inhibition of recombinant human MAO-B expressed in baculovirus infected BTI insect cells preincubated for 30 mins followed by addition of p-tyramine as substrate measured over 45 mins by Amplex Red MAO assay
T7 sequence (P27338 whole entry): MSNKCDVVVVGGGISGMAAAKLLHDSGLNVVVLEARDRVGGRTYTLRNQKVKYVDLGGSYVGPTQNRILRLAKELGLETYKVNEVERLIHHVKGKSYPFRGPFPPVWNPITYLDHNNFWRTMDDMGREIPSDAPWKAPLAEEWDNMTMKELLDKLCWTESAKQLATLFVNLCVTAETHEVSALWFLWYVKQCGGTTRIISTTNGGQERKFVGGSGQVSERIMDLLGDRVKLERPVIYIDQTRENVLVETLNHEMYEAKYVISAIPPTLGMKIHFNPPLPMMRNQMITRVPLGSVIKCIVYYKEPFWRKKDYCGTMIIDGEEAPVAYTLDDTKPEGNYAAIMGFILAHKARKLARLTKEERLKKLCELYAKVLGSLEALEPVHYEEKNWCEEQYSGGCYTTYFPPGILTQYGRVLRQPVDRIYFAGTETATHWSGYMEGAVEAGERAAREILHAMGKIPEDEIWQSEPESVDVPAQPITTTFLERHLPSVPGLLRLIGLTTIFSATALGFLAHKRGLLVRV

[8] = Thermodynamic solubility of the compound at pH 1; format: physicochemical; conditions: buffer, read-out: Therm_solubility
[9] = molecular target: T7, Amine oxidase [flavin-containing] B; assay: Inhibition of recombinant human MAO-B expressed in baculovirus infected BTI insect cells at 10 uM preincubated for 30 mins followed by addition of p-tyramine as substrate measured over 45 mins by Amplex Red MAO assay relative to control; conditions: 0.75 h
[10] = molecular target: T8, Amine oxidase [flavin-containing] A (Homo sapiens, UniProt P21397); assay: Inhibition of recombinant human MAO-A expressed in baculovirus infected BTI insect cells preincubated for 30 mins followed by addition of p-tyramine as substrate measured over 45 mins by Amplex Red MAO assay
T8 sequence (P21397 whole entry): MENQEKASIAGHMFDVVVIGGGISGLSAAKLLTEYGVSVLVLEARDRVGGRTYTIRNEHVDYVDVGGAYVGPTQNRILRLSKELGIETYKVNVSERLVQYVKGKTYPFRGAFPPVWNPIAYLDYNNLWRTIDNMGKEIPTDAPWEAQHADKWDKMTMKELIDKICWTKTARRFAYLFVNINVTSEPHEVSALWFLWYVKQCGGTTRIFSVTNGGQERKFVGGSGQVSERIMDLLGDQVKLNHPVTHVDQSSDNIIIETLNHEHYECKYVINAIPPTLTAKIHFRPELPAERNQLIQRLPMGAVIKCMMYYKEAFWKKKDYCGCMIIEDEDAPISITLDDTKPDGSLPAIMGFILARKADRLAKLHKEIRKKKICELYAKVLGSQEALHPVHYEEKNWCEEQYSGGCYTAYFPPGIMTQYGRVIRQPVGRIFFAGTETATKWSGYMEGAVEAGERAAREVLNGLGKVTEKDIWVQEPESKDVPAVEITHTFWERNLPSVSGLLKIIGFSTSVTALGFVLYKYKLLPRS

[11] = molecular target: T8, Amine oxidase [flavin-containing] A; assay: Inhibition of recombinant human MAO-A expressed in baculovirus infected BTI insect cells at 10 uM preincubated for 30 mins followed by addition of p-tyramine as substrate measured over 45 mins by Amplex Red MAO assay relative to control; conditions: 0.75 h
[12] = molecular target: Adenosine receptor A2a (Rattus norvegicus) (UniProt P30543); assay: Displacement of [3H]MSX from A2A receptor in rat brain striatum membranes at 1 uM measured after 30 mins by liquid scintillation counting method relative to control; format: cell membranes
Chain of Adenosine receptor A2a (Rattus norvegicus) (P30543 whole entry): as the sequence (P30543 whole entry) above

[13] = molecular target: T6, Adenosine receptor A2b (Homo sapiens); assay: Displacement of [3H]PSB-603 from human A2B receptor expressed in CHO cell membrane at 1 uM relative to control; format: cell membranes
Adenosine receptor A1 [14] = molecular target: T9, Adenosine receptor A1 (Homo sapiens, UniProt P30542); assay: Displacement of [3H]CCPA from human A1 receptor expressed in CHO cell membrane by liquid scintillation counting method; format: cell membranes
T9 sequence (P30542 whole entry): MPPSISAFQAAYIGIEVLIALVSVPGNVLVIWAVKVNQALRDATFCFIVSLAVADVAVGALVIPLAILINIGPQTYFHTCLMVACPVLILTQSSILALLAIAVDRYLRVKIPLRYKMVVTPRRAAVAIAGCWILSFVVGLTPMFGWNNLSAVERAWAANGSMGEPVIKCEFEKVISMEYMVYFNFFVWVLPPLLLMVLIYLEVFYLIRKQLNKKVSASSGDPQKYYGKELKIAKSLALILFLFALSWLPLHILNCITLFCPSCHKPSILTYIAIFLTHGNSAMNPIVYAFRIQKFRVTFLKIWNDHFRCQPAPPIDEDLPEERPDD

| solubility thermodynamic [1] | pKi (Adenosine receptor A1 [2]) | pKi (Adenosine receptor A2b) | solubility thermodynamic [3] | Activity [4] | pKi (Adenosine receptor A2a) | Activity [5] | pKi (Adenosine receptor A3) | Activity [6] | pIC50 [7] | solubility thermodynamic [8] | inhibition at 10 µM [9] | pIC50 [10] | inhibition at 10 µM [11] | Activity [12] | Activity [13] | pKi (Adenosine receptor A1 [14]) | SMILES |
| --- | --- | --- | --- | --- | --- | --- | --- | --- | --- | --- | --- | --- | --- | --- | --- | --- | --- |
| 1 µg/mL (≈ 2.85 µM) | < 5.82 | < 6.52 | < 0.5 µg/mL | 45% | 5.38 | 32% | < 5.00 | 10% | 5.67 | 1000 µg/mL (≈ 2850 µM) |  |  |  |  |  |  | Cn1c(=O)c2c(nc3n2CCN(C2CCc4ccccc42)C3)n(C)c1=O (racemic) |
|  | < 5.82 | < 6.52 |  | 16% | 5.82 | 6% | < 5.00 | 8% | < 5.00 |  | 35% | < 5.00 | 12% |  |  |  | Cn1c(=O)c2c(nc3n2CCN(CCc2cccc(F)c2)C3)n(C)c1=O |
|  | < 5.82 | < 6.52 |  | 33% | 5.61 | 29% | < 5.00 | 11% | < 5.00 |  | 22% |  |  |  |  |  | Cn1c(=O)c2c(nc3n2CCN([C@H]2CCc4ccccc42)C3)n(C)c1=O |
| < 0.5 µg/mL | < 5.82 | < 6.52 | < 0.5 µg/mL | 42% | 5.67 | 26% | < 5.00 | 29% | 5.44 | 700 µg/mL (≈ 1670 µM) |  |  |  |  |  |  | Cn1c(=O)c2c(nc3n2CCN(CCc2cccc(Br)c2)C3)n(C)c1=O |
| < 0.5 µg/mL | < 5.82 | < 6.00 | < 0.5 µg/mL | 42% | < 6.00 | 8% | < 5.00 |  | < 5.00 | > 1500 µg/mL | 22% |  |  | 31% | 11% |  | Cn1c(=O)c2c(nc3n2CCN(CCOc2cccc(F)c2)C3)n(C)c1=O |
| > 1500 µg/mL | < 5.82 | < 6.00 | 300 µg/mL (≈ 734 µM) | 10% | < 6.00 | 7% | < 5.00 |  | < 5.00 | > 1500 µg/mL | 2% |  |  | 5% | 17% |  | Cn1c(=O)c2c(nc3n2CCN(C2CCN(Cc4ccccc4)CC2)C3)n(C)c1=O |
| < 0.5 µg/mL | < 5.82 | < 6.52 | < 0.5 µg/mL | 14% | < 6.00 | 4% | < 5.00 | 13% |  | 400 µg/mL (≈ 940 µM) | 58% |  |  | 25% |  |  | Cn1c(=O)c2c(nc3n2CCN(CCc2cc(C(F)(F)F)ccc2F)C3)n(C)c1=O |
|  | < 5.82 | < 6.52 |  | 24% | 5.80 | 15% | < 5.00 | 17% | < 5.00 |  | 21% | < 5.00 | 5% |  |  |  | Cn1c(=O)c2c(nc3n2CCN(CCc2cccs2)C3)n(C)c1=O |
|  | 6.38 | < 6.00 |  |  | 5.65 |  | 4.51 |  | 5.61 |  |  | < 5.00 | 15% |  | 24% | 5.45 | Cn1c(=O)c2c(nc3n2CCN(CCc2ccc(Cl)cc2Cl)C3)n(C)c1=O |
|  | 6.86 | < 6.00 |  | 25% | 5.54 |  | < 5.00 |  | 6.37 |  |  |  |  |  | 26% | 6.26 | Cn1c(=O)c2c(nc3n2CCN(CCc2ccc(Cl)cc2C(F)(F)F)C3)n(C)c1=O |
|  | < 5.82 | < 6.52 | 80 µg/mL (≈ 226 µM) | 20% | 5.74 | 12% | < 5.00 | 5% | < 5.00 |  | 14% | < 5.00 | 9% |  |  |  | Cn1c(=O)c2c(nc3n2CCN(CCCc2ccccc2)C3)n(C)c1=O |
|  | < 5.82 | < 6.52 |  | 40% | 5.25 | 24% | < 5.00 | 2% |  |  | 65% |  |  |  |  |  | Cn1c(=O)c2c(nc3n2CCN(CCc2ccccc2F)C3)n(C)c1=O |
| 1500 µg/mL (≈ 4570 µM) | < 5.82 | < 6.00 | 1200 µg/mL (≈ 3650 µM) | 37% | < 6.00 | 7% | < 5.00 |  | < 5.00 | > 1500 µg/mL | 19% | < 5.00 | 14% | 8% | 8% |  | Cn1c(=O)c2c(nc3n2CCN(CCn2cccc2)C3)n(C)c1=O |
